Laboratory results reported in PubChem BioAssay AID2060624 (Molecular Pharmacology Branch, DTP, NCI, 2025).
pIC50: −log10 of the molar value.

System: 217524-143-R1-J4-PDC spheroids with HUVEC/MSC, viability
Assay: Anticancer human tumor 217524-143-R1-J4-PDC patient-derived pancreatic carcinoma cell line growth inhibition [CLK]
Conditions: for pIC50: curve of first compound; for viability, T/C: stronger effect = lower value
In short: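 Patient-derived tumor cells grown as complex spheroids with HUVEC endothelial cells and mesenchymal stem cells, treated with drug combinations. Concentrations descend in half-log steps from near clinical Cmax, or from 10 microM if Cmax unknown.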

[1] = second compound 0.0316 µM, first compound 0.0316 µM
[2] = second compound 0.0316 µM, first compound 0.1 µM
[3] = second compound 0.0316 µM, first compound 0.316 µM
[4] = second compound 0.0316 µM, first compound 1 µM
[5] = second compound 0.1 µM, first compound 0.0316 µM
[6] = second compound 0.1 µM, first compound 0.1 µM
[7] = second compound 0.1 µM, first compound 0.316 µM
[8] = second compound 0.1 µM, first compound 1 µM
[9] = second compound 0.316 µM, first compound 0.0316 µM
[10] = second compound 0.316 µM, first compound 0.1 µM
[11] = second compound 0.316 µM, first compound 0.316 µM
[12] = second compound 0.316 µM, first compound 1 µM
[13] = second compound 1 µM, first compound 0.0316 µM
[14] = second compound 1 µM, first compound 0.1 µM
[15] = second compound 1 µM, first compound 0.316 µM
[16] = second compound 1 µM, first compound 1 µM
[17] = second compound 3.16 µM, first compound 0.0316 µM
[18] = second compound 3.16 µM, first compound 0.1 µM
[19] = second compound 3.16 µM, first compound 0.316 µM
[20] = second compound 3.16 µM, first compound 1 µM
[21] = second compound 10 µM, first compound 0.0316 µM
[22] = second compound 10 µM, first compound 0.1 µM
[23] = second compound 10 µM, first compound 0.316 µM
[24] = second compound 10 µM, first compound 1 µM
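Further: spheroids exposed to agents for seven days before reading.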
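Wherever viability, T/C is given: 100% = DMSO vehicle control viability.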

C=CC(=O)Nc1cc(Nc2nccc(-c3cn(C)c4ccccc34)n2)c(OC)cc1N(C)CCN(C)C + CN1CCN(c2cc(C(=O)Nc3cc4cc(-c5cnn(C)c5)ccc4cn3)ccn2)CC1
pIC50 (second compound 0.0316 µM): 6.90 | pIC50 (second compound 0.1 µM): 7.49 | pIC50 (second compound 0.316 µM): > 9.02 | pIC50 (second compound 1 µM): > 9.02 | pIC50 (second compound 3.16 µM): > 9.02 | pIC50 (second compound 10 µM): > 9.02 | viability, T/C (second compound 0.0316 µM, first compound 0.000949 µM): 79.8% | viability, T/C (second compound 0.0316 µM, first compound 0.003 µM): 63.2% | viability, T/C (second compound 0.0316 µM, first compound 0.00949 µM): 82.2% | viability, T/C (second compound 0.0316 µM, first compound 0.03 µM): 72.5% | viability, T/C (second compound 0.0316 µM, first compound 0.0949 µM): 56% | viability, T/C (second compound 0.0316 µM, first compound 0.3 µM): 32.5% | viability, T/C (second compound 0.1 µM, first compound 0.000949 µM): 57.5% | viability, T/C (second compound 0.1 µM, first compound 0.003 µM): 61.2% | viability, T/C (second compound 0.1 µM, first compound 0.00949 µM): 61.9% | viability, T/C (second compound 0.1 µM, first compound 0.03 µM): 47.2% | viability, T/C (second compound 0.1 µM, first compound 0.0949 µM): 39.5% | viability, T/C (second compound 0.1 µM, first compound 0.3 µM): 24.8% | viability, T/C (second compound 0.316 µM, first compound 0.000949 µM): 25.4% | viability, T/C (second compound 0.316 µM, first compound 0.003 µM): 27.2% | viability, T/C (second compound 0.316 µM, first compound 0.00949 µM): 22.9% | viability, T/C (second compound 0.316 µM, first compound 0.03 µM): 22.5% | viability, T/C (second compound 0.316 µM, first compound 0.0949 µM): 19% | viability, T/C (second compound 0.316 µM, first compound 0.3 µM): 12.6% | viability, T/C (second compound 1 µM, first compound 0.000949 µM): 2.17% | viability, T/C (second compound 1 µM, first compound 0.003 µM): 2.28% | viability, T/C (second compound 1 µM, first compound 0.00949 µM): 1.87% | viability, T/C (second compound 1 µM, first compound 0.03 µM): 1.61% | viability, T/C (second compound 1 µM, first compound 0.0949 µM): 1.64% | viability, T/C (second compound 1 µM, first compound 0.3 µM): 0.9% | viability, T/C (second compound 3.16 µM, first compound 0.000949 µM): 1.11% | viability, T/C (second compound 3.16 µM, first compound 0.003 µM): 0.99% | viability, T/C (second compound 3.16 µM, first compound 0.00949 µM): 1.06% | viability, T/C (second compound 3.16 µM, first compound 0.03 µM): 0.81% | viability, T/C (second compound 3.16 µM, first compound 0.0949 µM): 1.04% | viability, T/C (second compound 3.16 µM, first compound 0.3 µM): 0.71% | viability, T/C (second compound 10 µM, first compound 0.000949 µM): 0.22% | viability, T/C (second compound 10 µM, first compound 0.003 µM): 0.25% | viability, T/C (second compound 10 µM, first compound 0.00949 µM): 0.25% | viability, T/C (second compound 10 µM, first compound 0.03 µM): 0.26% | viability, T/C (second compound 10 µM, first compound 0.0949 µM): 0.27% | viability, T/C (second compound 10 µM, first compound 0.3 µM): 0.25%

CCN1CCN(Cc2ccc(Nc3ncc(F)c(-c4cc(F)c5nc(C)n(C(C)C)c5c4)n3)nc2)CC1 + CN1CCN(c2cc(C(=O)Nc3cc4cc(-c5cnn(C)c5)ccc4cn3)ccn2)CC1
pIC50 (second compound 0.0316 µM): 6.65 | pIC50 (second compound 0.1 µM): 7.96 | pIC50 (second compound 0.316 µM): > 8.50 | pIC50 (second compound 1 µM): > 8.50 | pIC50 (second compound 3.16 µM): > 8.50 | pIC50 (second compound 10 µM): > 8.50 | viability, T/C (second compound 0.0316 µM, first compound 0.00316 µM): 93.3% | viability, T/C (second compound 0.0316 µM, first compound 0.01 µM): 62.5% | viability, T/C [1]: 71.2% | viability, T/C [2]: 60% | viability, T/C [3]: 41% | viability, T/C [4]: 44.6% | viability, T/C (second compound 0.1 µM, first compound 0.00316 µM): 55.3% | viability, T/C (second compound 0.1 µM, first compound 0.01 µM): 53.4% | viability, T/C [5]: 44.8% | viability, T/C [6]: 39% | viability, T/C [7]: 29.1% | viability, T/C [8]: 32.6% | viability, T/C (second compound 0.316 µM, first compound 0.00316 µM): 23.3% | viability, T/C (second compound 0.316 µM, first compound 0.01 µM): 21.7% | viability, T/C [9]: 17.6% | viability, T/C [10]: 17.6% | viability, T/C [11]: 15.8% | viability, T/C [12]: 17.1% | viability, T/C (second compound 1 µM, first compound 0.00316 µM): 2.31% | viability, T/C (second compound 1 µM, first compound 0.01 µM): 2.94% | viability, T/C [13]: 2.53% | viability, T/C [14]: 3.19% | viability, T/C [15]: 3.76% | viability, T/C [16]: 3.89% | viability, T/C (second compound 3.16 µM, first compound 0.00316 µM): 0.74% | viability, T/C (second compound 3.16 µM, first compound 0.01 µM): 0.96% | viability, T/C [17]: 1.42% | viability, T/C [18]: 1.28% | viability, T/C [19]: 3% | viability, T/C [20]: 4.17% | viability, T/C (second compound 10 µM, first compound 0.00316 µM): 0.23% | viability, T/C (second compound 10 µM, first compound 0.01 µM): 0.28% | viability, T/C [21]: 0.27% | viability, T/C [22]: 0.28% | viability, T/C [23]: 0.46% | viability, T/C [24]: 0.58%

Nc1ccccc1NC(=O)c1ccc(CNC(=O)OCc2cccnc2)cc1 + CN1CCN(c2cc(C(=O)Nc3cc4cc(-c5cnn(C)c5)ccc4cn3)ccn2)CC1
pIC50 (second compound 0.0316 µM): 5.43 | pIC50 (second compound 0.1 µM): 5.70 | pIC50 (second compound 0.316 µM): > 7.50 | pIC50 (second compound 1 µM): > 7.50 | pIC50 (second compound 3.16 µM): > 7.50 | pIC50 (second compound 10 µM): > 7.50 | viability, T/C [1]: 84.2% | viability, T/C [2]: 84.9% | viability, T/C [3]: 80.2% | viability, T/C [4]: 66.5% | viability, T/C (second compound 0.0316 µM, first compound 3.16 µM): 57.4% | viability, T/C (second compound 0.0316 µM, first compound 10 µM): 23.1% | viability, T/C [5]: 65.5% | viability, T/C [6]: 61.1% | viability, T/C [7]: 63.5% | viability, T/C [8]: 60.8% | viability, T/C (second compound 0.1 µM, first compound 3.16 µM): 42.6% | viability, T/C (second compound 0.1 µM, first compound 10 µM): 19.9% | viability, T/C [9]: 18.9% | viability, T/C [10]: 20.2% | viability, T/C [11]: 27.3% | viability, T/C [12]: 39.2% | viability, T/C (second compound 0.316 µM, first compound 3.16 µM): 28.9% | viability, T/C (second compound 0.316 µM, first compound 10 µM): 5.46% | viability, T/C [13]: 1.9% | viability, T/C [14]: 1.63% | viability, T/C [15]: 1.82% | viability, T/C [16]: 1.83% | viability, T/C (second compound 1 µM, first compound 3.16 µM): 0.8% | viability, T/C (second compound 1 µM, first compound 10 µM): 0.38% | viability, T/C [17]: 0.79% | viability, T/C [18]: 1.03% | viability, T/C [19]: 0.98% | viability, T/C [20]: 0.64% | viability, T/C (second compound 3.16 µM, first compound 3.16 µM): 0.44% | viability, T/C (second compound 3.16 µM, first compound 10 µM): 0.54% | viability, T/C [21]: 0.13% | viability, T/C [22]: 0.21% | viability, T/C [23]: 0.25% | viability, T/C [24]: 0.2% | viability, T/C (second compound 10 µM, first compound 3.16 µM): 0.23% | viability, T/C (second compound 10 µM, first compound 10 µM): 0.3%
